According to patent publication US6803195B1, “Facile detection of cancer and cancer risk based on level of coordination between alleles” (Ramot At Tel-Aviv University Ltd., priority 1999, dated 2004):

Key:
[1] = system: lymphocytes of prostate cancer patients (CAP) and control subjects (BPH); assay: FISH determination of allelic loss in CAP and BPH lymphocytes with and without 5-azacytidine (Example 7); type: cell-based, human; settings: CAP samples 1-6 and BPH samples 1-6, presence vs absence of AZA
Description: Each sample was set up for short-term culturing in F10 medium supplemented with 20% fetal calf serum (FCS), 3% phytohemagglutinin (PHA), 0.2% heparin, and 1% antibiotics (a standard solution of penicillin and streptomycin). Cultures were incubated at 37° C. for 72 hours and then colchicine (final concentration 0.1 μg/ml) was added to the culture for one hour, followed by hypotonic treatment (0.075 M KC1 at 37° C. for 15 minutes) and four washes each with a fresh cold 3:1 methanol: acetic acid solution. The cell suspensions were stored at −20° C. until used for fluorescence in situ hybridization (FISH). […]
Slides were analyzed blindly on an Olympus BH2 fluorescent microscope, using a triple band-pass filter (Chroma technology). […] For each sample and for each treatment the frequency of SD, SS and DD cells out of the total population of cells containing two fluorescent signals was recorded (for details please see Dotan et al, Genes, Chromosomes & Cancer 27:270-277, 2000). For the determination of allelic losses at least 200 cells from the same preparation used for replication studied were analyzed for each tested sample. […]

[2] = system: PHA-stimulated lymphocytes of patients suffering from a hematological malignancy; assay: FISH replication assay, lymphocytes of hematological cancer patients grown with 5-azacytidine (Example 6); type: cell-based, human; settings: for percentage of SD cells following exposure to AZA, mean value: patients' samples 1-15, 72 hours, mean ± standard deviation
Description: Each subject donated five ml of peripheral blood. Cell cultures of PHA-stimulated lymphocytes were set up according to standard protocol (Rooney and Czepulkowsli, 1992). Briefly, 0.5 ml of peripheral blood was introduced into a 15 ml test tube containing 5ml F-10 medium supplemented with 20% fetal calf serum, 0.2% heparin, 1% penicillin/streptomycin antibiotic solution (Biological industries, Israel) and 3% phytohemagglutinin (PHA). In addition, all the 15 samples derived from the hematological patients (samples 1-15) and 15 of the 41 samples derived from non-cancerous subjects (samples 16-30) were also grown in the presence of 10^−7M 5-azacytidine (AZA; Sigman, USA) added to the other ingredients described above.
After 72 hours at 37° C., colchicine (Sigma, USA) was added to each sample (final concentration of 5×10^−7M for one hour) followed by hypotonic treatment (0.075 M KC1 at 37° C. for 15 minutes) and four washes, each with a fresh cold (−20° C.) 3:1 solution of methanol: acetic acid. The cell suspensions were stored at −20° C. until used for FISH.
Six diverse loci were tested using directly labeled commercial probes obtained from Vysis: (i) the SNRPN probe (32-190004); (ii) the TP53 probe (32-190006); (iii) the AML1 probe (LSI 21; 32-190002); (iv) the RB1 probe (LSI 13; 32-190001); (v) the α-satellite probe specific for centromere 17 (32-130017, hereafter marked as CEN17); and (vi) the satellite III probe specific for centromere 15 (32-1300015, hereafter marked as CEN15). The SNRPN probe identifies the Prader-Willi/Angelman syndrome region on 15q11-13 and is the most well characterized imprinted region in man (Ozoelik et al 1992). The TP53 probe identifies the p53 gene mapped to […] and is a tumor suppressor gene whose deletion and/or inactivation is implicated in over 50% of all human tumors (Prokocimer et al 1998). The AML1 probe recognizes a gene mapped to chromosome 21q22, which is one of the most frequently translocated genes in human blood malignancy (Look 1997). […] It is located on chromosome 13q14, and encodes the retinoblastoma protein. Both centromere specific probes (CEN17 and CEN15) identify non-coding loci implicated with chromosomal segregation and stability and are usually used for the enumeration of chromosome 17 and 15, respectively. Also the AML1 and RB1 probes, although not identifying centromeric regions, were both approved by the FDA to replace centromere specific probes for the enumeration of chromosomes 21 and 13, respectively.
A standard protocol was followed, as recommended by Ingen Laboratories (currently Insitus Biotechnologies), with few minor changes. Probes were diluted in Ingen's DenHyb solutions D001 to 400 folds (CEN17 and CEN15) and in D003 to 100 fold (AML1; RB1) or 50 fold (TP53; SNRPN) instead of the hybridization solution supplied with the probe. Five μl of the probe solution was placed on the targeted area of the sample slides and covered with a 12 mm round silanized coverslip (Ingen laboratories, USA) at 76° C. and denatured for six minutes at that temperature. The slide-filled aluminum slide tray was then transferred into an HybBox (Ingen Laboratories, USA), covered and allowed to hybridize overnight in the box.
All samples obtained from the cancerous patients (samples 1-15) were analyzed with each of the six probes used, each in the absence as well as in the presence of AZA. Out of the non-cancerous samples grown without AZA 41 (samples 16-56) were analyzed with the AML1 and TP53 probes, 30 (samples 16-45) with the CEN17 probe and 15 (samples 16-30) with each of the other three probes (SNRPN, RB1 and CEN15).
Slides were analyzed blindly on an Olympus BH2 fluorescent microscope, using a triple band-pass filter (Chroma technology). For the replication assay (Boogs and Chinault, 1997) at least 100 cells, containing two well-defined hybridization signals were scored from each sample, for each probe and for each treatment, following one-color FISH. […]

Structure (SMILES): Nc1ncn([C@@H]2O[C@H](CO)[C@@H](O)[C@H]2O)c(=O)n1 [AZA, 5-azacytidine]
- frequency of cells showing a loss of one copy of AML1, TP53, CMYC, RB1, D15Z1 and SNRPN [1]: Neither the CAP samples nor the BPH samples were affected
- percentage of SD cells following exposure to AZA, mean value ([2]; AML1 locus, 10^-7M AZA): 25.3±3.7%
- percentage of SD cells following exposure to AZA, mean value ([2]; CEN15 locus, 10^-7M AZA): 21.9±2.3%
- percentage of SD cells following exposure to AZA, mean value ([2]; CEN17 locus, 10^-7M AZA): 22.7±3.4%
- percentage of SD cells following exposure to AZA, mean value ([2]; RB1 locus, 10^-7M AZA): 22.4±2.5%
- percentage of SD cells following exposure to AZA, range ([2]; TP53, AML1, RB1, CEN17 and CEN15, patients' samples, 10^-7M AZA): 15-28%
- percentage of SD cells following exposure to AZA, mean value ([2]; TP53 locus, 10^-7M AZA): 21.7±4.4%
- cancer-induced allele-specific replication ([2]; all five loci tested (TP53, RB1, AML1, satellited sequences of chromosomes 15 and 17), blood cells of hematological patients): reversed to the normal
- combined SD frequency (mean of TP53, AML1, RB1, CEN17 and CEN15) per sample, range ([2]; patients' samples exposed to AZA): 19.8-26.2%
